Calls of active or inactive are those of the source.
Experiments:
[1] = biological target: Mothers against decapentaplegic homolog 3 (Homo sapiens, UniProt P84022); test: blockers of Smad3 complex formation in lysate – cell lysate, secondary confirmation, chemiluminescent ELISA, HEK293 lysate, dose response (AID 1058); assay type: functional
HeLa = test: Cytotoxicity counterscreen assay for transcriptional activators of heat shock protein 70 (Hsp70). [Related pubchem assays: 1203, 1252 ]; assay type: functional; conditions: Homo sapiens
SUMO-activating enzyme [2] = biological target: T1, SUMO-activating enzyme (Homo sapiens, UniProt Q9UBT2); test: blockers of UBC9-mediated SUMO conjugation – biochemical, AlphaScreen, SUMOylation inhibitor project, confirmation (AID 2018); assay type: functional
T1 sequence (Q9UBE0 whole entry): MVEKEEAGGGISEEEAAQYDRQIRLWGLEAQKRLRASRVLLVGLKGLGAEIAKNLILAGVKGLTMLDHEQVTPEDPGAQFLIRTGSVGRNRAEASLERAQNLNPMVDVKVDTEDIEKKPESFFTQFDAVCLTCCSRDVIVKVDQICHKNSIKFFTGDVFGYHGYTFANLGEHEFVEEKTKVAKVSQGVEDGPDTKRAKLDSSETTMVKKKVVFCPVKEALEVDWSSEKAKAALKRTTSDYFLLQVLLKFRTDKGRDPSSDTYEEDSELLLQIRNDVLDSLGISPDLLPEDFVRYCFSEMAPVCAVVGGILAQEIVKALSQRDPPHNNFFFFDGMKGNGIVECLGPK
T1 sequence (Q9UBT2 whole entry): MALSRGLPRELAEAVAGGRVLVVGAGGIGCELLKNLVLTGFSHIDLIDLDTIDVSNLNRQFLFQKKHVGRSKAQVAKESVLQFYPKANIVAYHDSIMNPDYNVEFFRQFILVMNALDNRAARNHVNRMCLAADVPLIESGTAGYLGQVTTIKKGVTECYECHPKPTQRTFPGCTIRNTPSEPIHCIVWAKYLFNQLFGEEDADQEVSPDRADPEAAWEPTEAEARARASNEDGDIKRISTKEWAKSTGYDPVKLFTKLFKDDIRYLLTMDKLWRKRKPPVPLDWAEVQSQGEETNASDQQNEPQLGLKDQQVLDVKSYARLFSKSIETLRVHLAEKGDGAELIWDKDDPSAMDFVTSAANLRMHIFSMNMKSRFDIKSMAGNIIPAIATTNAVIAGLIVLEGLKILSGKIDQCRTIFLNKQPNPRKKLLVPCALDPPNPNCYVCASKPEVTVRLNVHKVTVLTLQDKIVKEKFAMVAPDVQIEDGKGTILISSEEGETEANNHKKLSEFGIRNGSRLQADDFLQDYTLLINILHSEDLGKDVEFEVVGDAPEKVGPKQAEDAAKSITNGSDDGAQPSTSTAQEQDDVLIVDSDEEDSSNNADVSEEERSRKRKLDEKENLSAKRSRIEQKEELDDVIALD

[3] = biological target: T2, Calpain-2 catalytic subunit (Sus scrofa, UniProt P43367); test: m-calpain protease blockers, concentration series – biochemical, fluorogenic peptide substrate, dose response (AID 1420); assay type: functional
T2 sequence (P43367 whole entry): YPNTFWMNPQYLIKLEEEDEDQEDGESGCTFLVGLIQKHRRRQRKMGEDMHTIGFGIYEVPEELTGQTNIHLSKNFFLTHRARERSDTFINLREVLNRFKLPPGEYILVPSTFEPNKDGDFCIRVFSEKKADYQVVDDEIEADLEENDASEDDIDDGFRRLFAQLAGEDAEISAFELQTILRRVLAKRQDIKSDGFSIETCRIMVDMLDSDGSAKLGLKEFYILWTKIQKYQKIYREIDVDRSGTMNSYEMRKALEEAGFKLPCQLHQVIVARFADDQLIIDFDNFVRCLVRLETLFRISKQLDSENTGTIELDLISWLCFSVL

[4] = biological target: Induced myeloid leukemia cell differentiation protein Mcl-1 (Homo sapiens, UniProt Q07820); assay type: functional
Sequence of Induced myeloid leukemia cell differentiation protein Mcl-1 (Q07820 whole entry): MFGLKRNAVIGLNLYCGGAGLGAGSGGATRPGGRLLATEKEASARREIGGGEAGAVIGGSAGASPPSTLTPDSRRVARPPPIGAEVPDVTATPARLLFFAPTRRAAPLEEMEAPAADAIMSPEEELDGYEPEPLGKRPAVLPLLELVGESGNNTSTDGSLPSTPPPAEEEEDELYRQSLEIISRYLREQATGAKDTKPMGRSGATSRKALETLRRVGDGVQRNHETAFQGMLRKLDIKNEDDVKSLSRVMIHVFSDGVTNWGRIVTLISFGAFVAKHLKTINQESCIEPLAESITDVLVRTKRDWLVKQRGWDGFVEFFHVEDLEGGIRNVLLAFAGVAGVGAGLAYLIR

SUMO-activating enzyme [5] = biological target: T1, SUMO-activating enzyme; test: blockers of SAE1/SAE2–UBC9 SUMO transfer – biochemical, HTRF, uHTS, primary screen (AID 2006); assay type: protein-complex assay
[6] = CCR5-tropic HIV-1 fusion blockers – cell-based, CCR5-tropic Env, dose response (AID 2279); assay type: functional
[7] = biological target: T3, Alkaline phosphatase, tissue-nonspecific isozyme (Homo sapiens, UniProt P05186)
T3 sequence (P05186 whole entry): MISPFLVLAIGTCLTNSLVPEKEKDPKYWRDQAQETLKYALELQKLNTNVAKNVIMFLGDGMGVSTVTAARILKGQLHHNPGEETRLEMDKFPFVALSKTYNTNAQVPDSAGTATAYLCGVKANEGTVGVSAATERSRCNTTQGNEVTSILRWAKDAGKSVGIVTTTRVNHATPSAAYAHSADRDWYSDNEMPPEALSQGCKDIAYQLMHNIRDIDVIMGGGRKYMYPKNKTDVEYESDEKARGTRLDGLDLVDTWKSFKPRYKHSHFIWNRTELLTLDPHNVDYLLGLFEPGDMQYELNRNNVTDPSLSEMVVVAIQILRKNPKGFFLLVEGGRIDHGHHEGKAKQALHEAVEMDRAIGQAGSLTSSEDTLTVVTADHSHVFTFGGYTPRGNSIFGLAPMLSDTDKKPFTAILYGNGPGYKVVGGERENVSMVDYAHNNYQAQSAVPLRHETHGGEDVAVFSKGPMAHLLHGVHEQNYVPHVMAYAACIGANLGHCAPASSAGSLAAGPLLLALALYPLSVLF

[8] = mitochondrial function rescue without frataxin homolog – Friedreich's ataxia, plus single-dose screen, dose response (AID 1465); assay type: functional;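 also: yeast depleted of Yfh1p frataxin homolog grown on glycerol needing respiration; WST-1 tetrazolium dye reduction as measure of cellular dehydrogenase metabolic activity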
HT-1080 = test: HT1080 cell viability loss – fluorescence readout (AID 620); assay type: functional, cell-based; conditions: Homo sapiens
[9] = biological target: Luciferin 4-monooxygenase (Photinus pyralis, UniProt P08659); test: Counter Screen for Luciferase-based Assay Positives. [Related pubchem assays: 620, 618, 411 ]
Sequence of Luciferin 4-monooxygenase (P08659 whole entry): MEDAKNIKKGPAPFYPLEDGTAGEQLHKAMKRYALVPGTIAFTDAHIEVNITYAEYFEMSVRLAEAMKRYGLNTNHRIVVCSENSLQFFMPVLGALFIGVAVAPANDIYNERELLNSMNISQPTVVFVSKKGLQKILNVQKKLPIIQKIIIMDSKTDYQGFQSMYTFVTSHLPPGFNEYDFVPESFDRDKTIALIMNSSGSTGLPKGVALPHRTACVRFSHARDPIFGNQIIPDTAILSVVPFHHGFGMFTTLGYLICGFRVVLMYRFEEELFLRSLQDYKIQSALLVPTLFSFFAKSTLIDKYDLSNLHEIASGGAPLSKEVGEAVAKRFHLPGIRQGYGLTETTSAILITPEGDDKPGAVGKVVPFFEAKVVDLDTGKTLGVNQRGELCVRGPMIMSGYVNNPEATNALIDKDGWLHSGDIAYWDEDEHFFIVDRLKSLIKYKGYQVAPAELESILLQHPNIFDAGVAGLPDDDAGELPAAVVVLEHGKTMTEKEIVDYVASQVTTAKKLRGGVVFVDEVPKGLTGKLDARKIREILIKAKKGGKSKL

[10] = Luminescence Cell-Based Dose Response HTS to Identify Inhibitors of 5'UTR Stem-Loop Driven Prion Protein mRNA Translation in H4 Neuroglioblastoma Cells. [Related pubchem assays: 1827 (Project Summary), 1813 (Primary HTS)]; assay type: functional
BJ [11] = test: BJ-TERT-LT-ST fibroblast viability loss – cell-based, RAS-independent, luminescence, dose response (AID 1935); assay type: functional; conditions: Homo sapiens;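 also: BJ fibroblasts immortalized with TERT plus LT and ST oncogenes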
Paired box protein Pax-8 = Paired box protein Pax-8 (Homo sapiens, UniProt Q06710); test: PAX8 transcriptional activity inhibition in RMG-I – RMG-I cells, luciferase, cherry-pick, dose response (AID 687027); assay type: functional, cell-based;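 also: luciferase reporter driven by Pax8 target thyroperoxidase promoter measured by SteadyGlo luminescence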
Sequence of Paired box protein Pax-8 (Q06710 whole entry): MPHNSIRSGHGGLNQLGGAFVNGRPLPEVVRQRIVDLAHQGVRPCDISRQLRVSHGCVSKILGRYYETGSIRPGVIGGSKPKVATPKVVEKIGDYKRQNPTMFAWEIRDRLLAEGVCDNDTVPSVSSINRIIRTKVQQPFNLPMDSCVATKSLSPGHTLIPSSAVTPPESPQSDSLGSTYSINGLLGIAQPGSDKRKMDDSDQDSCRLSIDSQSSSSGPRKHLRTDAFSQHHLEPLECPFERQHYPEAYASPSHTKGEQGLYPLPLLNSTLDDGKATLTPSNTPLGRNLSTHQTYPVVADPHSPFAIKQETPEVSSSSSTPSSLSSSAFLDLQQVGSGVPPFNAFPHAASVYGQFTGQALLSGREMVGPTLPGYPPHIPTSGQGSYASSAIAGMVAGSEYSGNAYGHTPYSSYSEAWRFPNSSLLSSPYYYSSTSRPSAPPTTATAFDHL

[12] = Luminescence Cell-Based Dose Retest to Confirm Inhibitors of Cancer Stem Cells. [Related pubchem assays (depositor defined):AID2717, AID2721]; assay type: functional, Homo sapiens
Vero [13] = test: cells; assay type: functional; conditions: Chlorocebus sabaeus
[14] = DRD fibroblast viability loss – cell-based, non-viral oncogenic, luminescence, dose response (AID 1934); assay type: functional; conditions: Homo sapiens
BJ [15] = test: cells; assay type: functional, cell-based; conditions: Homo sapiens
[16] = alpha-synuclein stem-loop luciferase translation blockers – H4 neuroglioma cells, luminescence, confirmation (AID 1988); assay type: functional, cell-based
Vero [17] = test: mammalian cell viability reduction – secondary assay, cytotoxicity control for West Nile virus antiviral project, dose response (AID 1650); assay type: functional; conditions: Chlorocebus sabaeus
Vero [18] = test: cells; assay type: functional, cell-based; conditions: Chlorocebus sabaeus
BJ [19] = test: growth inhibition of engineered Ras-driven BJ cells – cell-based, alamar blue fluorescence, cherrypicked samples, dose response (AID 2631); assay type: functional; conditions: Homo sapiens;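 also: confirmatory dose-response assay in RAS-dependent BJ fibroblasts engineered with TERT, LT and ST, with cytotoxicity read by fluorescence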
[20] = Luminescence-based counterscreen assay for KLF5 inhibitors: dose response cell-based high throughput screening assay to identify cytotoxic compounds using the IEC-6 intestinal epithelial cell line. [Related pubchem assays: 1700 (Primary screen.), 1834 (Confirmation screen.), 1858 (Summary AID.), 1905 (Counterscreen.)]; assay type: functional
[21] = HEK-293T viability loss after treatment – luminescence, T-cell screen hits, cytotoxicity control for TCR NF-kB inhibitor project, dose response (AID 489026); assay type: functional, cell-based;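 also: cells exposed to compound about 14 hours before the viability readout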
BJ [22] = test: BJ-TERT fibroblast viability loss – cell-based, RAS-independent, luminescence, dose response (AID 1933); assay type: functional; conditions: Homo sapiens
[23] = luciferase reporter signal suppression in cells – H4 neuroglioma cells, luminescence, dose response (AID 1990); assay type: functional, cell-based
Bcl-2-like protein 10 = Bcl-2-like protein 10 (Homo sapiens, UniProt Q9HD36); test: Concentration-response of Bcl-B inhibitors by biochemical FP with TR3 (AID 1243); assay type: functional
Sequence of Bcl-2-like protein 10 (Q9HD36 whole entry): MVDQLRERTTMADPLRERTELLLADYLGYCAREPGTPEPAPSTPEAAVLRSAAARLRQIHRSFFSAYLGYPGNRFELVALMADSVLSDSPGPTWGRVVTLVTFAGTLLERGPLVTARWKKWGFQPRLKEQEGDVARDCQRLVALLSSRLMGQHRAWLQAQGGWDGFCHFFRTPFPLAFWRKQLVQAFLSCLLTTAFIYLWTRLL

Sequence of Mothers against decapentaplegic homolog 3 (P84022 whole entry): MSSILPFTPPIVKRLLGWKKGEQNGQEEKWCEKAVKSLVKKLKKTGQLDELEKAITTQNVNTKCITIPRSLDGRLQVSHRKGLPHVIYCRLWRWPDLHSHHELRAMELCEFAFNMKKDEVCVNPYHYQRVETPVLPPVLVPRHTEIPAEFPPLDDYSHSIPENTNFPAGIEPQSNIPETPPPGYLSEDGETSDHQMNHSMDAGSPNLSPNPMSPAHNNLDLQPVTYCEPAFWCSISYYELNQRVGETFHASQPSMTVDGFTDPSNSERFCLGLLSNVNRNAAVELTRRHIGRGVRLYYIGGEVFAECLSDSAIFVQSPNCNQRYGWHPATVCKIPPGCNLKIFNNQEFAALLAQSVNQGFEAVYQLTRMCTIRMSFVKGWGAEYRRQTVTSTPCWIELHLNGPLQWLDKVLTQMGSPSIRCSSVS

## COc1ccc(C(c2cc3c(cc2O)OCO3)N2CCCC2)cc1 (stereo not drawn)
[1]
  IC50: 14.6 µM (not active)

## Cc1cc(C)nc(SCc2nnc(SCC(=O)Nc3cc(C(F)(F)F)ccc3Cl)o2)n1
HeLa
  CC50: > 99 µM (not active)

## O=[N+]([O-])c1cccc(S(=O)(=O)Nc2nc3ccccc3nc2Nc2cccc(S(=O)(=O)N3CCCCC3)c2)c1
SUMO-activating enzyme [2]
  IC50: 4.59 µM (active)
[3]
  IC50: 4.49 µM (not active)
[4]
  IC50: 5.85 µM (active)
SUMO-activating enzyme [5]
  IC50: 20.1 µM (active)
[6]
  IC50: 6.03 µM (active)

## COCCNC(=O)CCC(=O)NNc1nc2ccccc2c2nc(-c3ccccc3)nn12
[7]
  EC50: 82 µM (not active)

## CCCOc1ccc(C2NC(S)=NC(c3ccccc3)=C2C(=O)Nc2ccc(C)cc2)cc1OC (stereo not drawn)
[8]
  EC50: > 100 µM (active)

## CCc1nnc(NC(=O)c2ccc(OC)cc2OC)s1
HT-1080
  EC50: > 50 µM (not active)
[9]
  EC50: > 100 µM (not active)

## C[C@@H]1O[C@@H](O[C@H]2C[C@@H](O)[C@]3(CO)[C@H]4[C@H](O)C[C@]5(C)[C@@H](C6COC(=O)C6)CC[C@]5(O)[C@@H]4CC[C@]3(O)C2)[C@H](O)[C@H](O)[C@H]1O (stereo partly drawn)
[10]
  EC50: 0.132 µM (active)
BJ [11]
  EC50: 2.78 µM (inconclusive)
Paired box protein Pax-8
  AC50: 5.38 µM (active)
[12]
  AC50: 1.28 µM (active)
[12]; Homo sapiens
  AC50: 1.46 µM (active)
Vero [13]
  CC50: 4.84 µM (active)
[14]
  EC50: 0.44 µM (active)
BJ [15]
  EC50: 4.77 µM (inconclusive)
[16]
  EC50: 0.102 µM (active)
Vero [17]
  CC50: 1.91 µM (active)
Vero [18]
  IC50: < 0.05 µM (active)
BJ [19]
  EC50: 0.39 µM (active)
[20]
  IC50: > 39.8 µM (not active)
[21]
  IC50: > 80 µM (inactive)
BJ [22]
  EC50: 0.405 µM (inconclusive)
[23]
  EC50: 0.251 µM (active)

## COc1ccc(OC)c(C=NNC(=O)c2cc[n+](CC(=O)c3ccccc3)cc2)c1
Bcl-2-like protein 10
  EC50: 1.35 µM (active)
